The source of these data is PMC6099663, “Structure–Activity Relationship of the Tyrosinase Inhibitors Kuwanon G, Mulberrofuran G, and Albanol B from Morus Species: A Kinetics and Molecular Docking Study” (Molecules : A Journal of Synthetic Chemistry and Natural …, 2018).

Read-outs that look alike come from different tables or passages of the source. Where only a bound is given, the exact number is not on record here.

The test system of test [1] is tyrosinase. Particulars: cited from earlier work.
The target of test [2] is T1, mushroom tyrosinase (Agaricus bisporus, UniProt C7FF04). The test can be described thus: Enzyme kinetic analysis with tyrosinase (Lineweaver-Burk and Dixon plots, L-tyrosine substrate). It is filed as biochemical. The settings on record: for Inhibition Mode: Lineweaver–Burk plot, L-tyrosine substrate (monophenolase). As to the method: Kinetic analysis was employed to verify the inhibitory activity of the active compounds and identify the type of inhibition. KG and MG were potent tyrosinase inhibitors as analyzed by Lineweaver–Burk and Dixon plots (Figure 3 and Figure 4). Different concentrations of the substrate (L-tyrosine, 1.0, 0.5, and 0.25 mM) along with the various concentrations of KG (10, 50, and 100 µM) and MG ([…]) were analyzed. […] The Ki values represent the concentrations required to form an enzyme inhibitor complex, so inhibitors with lower Ki values indicate greater tyrosinase inhibition activity for the development of prophylactic and therapeutic agents.
We observed the sample activity by decreasing the L-tyrosine (1.0, 0.5, and 0.25 mM) substrate concentration to determine the tyrosinase inhibitory mechanism. The reaction mixture consisted of a 20 µL test sample at the following test concentrations: 1.6, 8, and 16 µM for MG; 10, 50, and 100 µM for KG. Tyrosinase inhibition was determined at various concentrations of L-tyrosine substrate (1.0, 0.5, and 0.25 mM) in the absence or presence of the test compound concentrations (1.6, 8, and 16 µM for MG; 10, 50, and 100 µM for KG) using Lineweaver-Burk double reciprocal plots that determine enzyme kinetic parameters including Km and Vmax. The enzymatic procedures consisted of the previously described tyrosinase assay methods. The inhibition constant (Ki) was determined from the interpretation of Dixon plots.

Test [3] concerns the target mushroom tyrosinase. Set-up: method as in ref 12 (Zheng et al.). The settings on record: L-tyrosine substrate; ref 12 (Zheng et al.); read-out: IC50, L-tyrosine oxidation (monophenolase); cited from earlier work.
Test [4] has as its target mushroom tyrosinase. Set-up: method as in ref 13 (Chaita et al.). The settings on record: L-DOPA substrate; ref 13 (Chaita et al.); read-out: IC50, mushroom tyrosinase via the L-DOPA pathway; cited from earlier work.
The target in test [5] is T1, mushroom tyrosinase. In words: Mushroom tyrosinase inhibitory assay, L-tyrosine oxidation (monophenolase activity). In kind it is biochemical. More on the design: purchased Sigma-Aldrich Co. (St. Louis, MO, USA). As to the method: (§1) Briefly, 10 µL of a specified concentration of each sample solution (1–500 µg/mL) in 10% dimethyl sulfoxide and 20 µL of mushroom tyrosinase (1000 Units/mL) in a 50 mM phosphate buffer (pH 6.5) were added to 170 µL of an assay mixture in a 96-well microplate. […] The reaction mixtures were incubated at 25 °C for 15 s. The absorbance of the mixture at 490 nm was measured using a microplate reader. […] One unit (U) of enzymatic activity referred to the amount of an enzyme capable of converting 1 µM of the L-tyrosine/L-DOPA reaction mixture within 1 min at 280 nm under the specific conditions (25 °C, optimum conditions).

For test [6], the target named is T1, mushroom tyrosinase. The test can be described thus: Mushroom tyrosinase inhibitory assay, L-DOPA oxidation (diphenolase activity). It is filed as biochemical. Set-up: purchased Sigma-Aldrich Co. (St. Louis, MO, USA). Particulars: L-DOPA substrate (diphenolase), 25 °C, pH 6.5, mean ± SEM of triplicate. As to the method:
as §1

The test system of test [7] is B16F10 cells. Set-up: method as in PMID 25819153. The settings on record: 150 µM; cited from earlier work.
The mark [8] stands for this setting: L-tyrosine substrate (monophenolase), 25 °C, pH 6.5, mean ± SEM of triplicate, read-out: IC50 (μM) Value L-Tyrosine.
[9] abbreviates: read-out: IC50 (μM) Value L-DOPA.

T1 sequence (C7FF04 2-392): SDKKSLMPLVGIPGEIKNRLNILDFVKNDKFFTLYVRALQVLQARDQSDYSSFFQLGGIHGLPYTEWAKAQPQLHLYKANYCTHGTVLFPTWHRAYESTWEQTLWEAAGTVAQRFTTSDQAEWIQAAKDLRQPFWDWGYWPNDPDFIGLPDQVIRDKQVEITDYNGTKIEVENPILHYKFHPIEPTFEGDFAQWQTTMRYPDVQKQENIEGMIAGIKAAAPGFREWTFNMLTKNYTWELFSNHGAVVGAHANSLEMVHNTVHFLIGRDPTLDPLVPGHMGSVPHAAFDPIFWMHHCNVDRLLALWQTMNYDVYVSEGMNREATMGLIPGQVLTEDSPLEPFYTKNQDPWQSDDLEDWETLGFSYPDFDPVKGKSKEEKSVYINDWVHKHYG

As for `O=C(O)/C=C/c1ccccc1` [Cinnamic acid], the “inhibition type toward tyrosinase” value in test [1] (interacted with secondary binding sites when catalytic pocket occupied with tropolone, ref 34 (Hassani et al.)) is recorded as “mixed type inhibitor”.

For the compound `CC(C)=CCc1c(-c2ccc(O)cc2O)oc2c(C3C=C(C)CC(c4ccc(O)cc4O)C3C(=O)c3ccc(O)cc3O)c(O)cc(O)c2c1=O` (centres unmarked) [Kuwanon G], the Ki in test [2] is 18.7 µM. Further, the “Inhibition Mode” value in test [2] is “Competitive”. For the same compound, the IC50 in test [3] is greater than 200 µM; in test [4], 27.2 µM; in test [5], 67.6 ± 2.11 µM; in test [6] (IC50 (μM) Value L-DOPA) it was 44 µM.

On to `C=C1CC/C=C(\C)CC[C@@H]2[C@@H]1CC2(C)C` [β-caryophyllene], for which the intracellular tyrosinase activity result in test [7] is “decreased”.

Regarding `CC1=CCCCC1` [1-Methyl-1-cyclohexene, reference compound], the IC50 in test [5] (setting [8]) and in test [6] (setting [9]) was greater than 1000 µM each time.

With `O=c1cc(CO)occ1O` [Kojic acid], the “inhibition type toward tyrosinase” value in test [1] is listed as “selective competitive inhibitor”.

As for `CC1=C[C@H]2c3c(O)cc(-c4cc5ccc(O)cc5o4)cc3O[C@@]3(c4ccc(O)cc4O)Oc4cc(O)ccc4[C@H](C1)[C@@H]23` [Mulberrofuran G], the Ki in test [2] (Dixon plot, L-tyrosine substrate, read-out: Inhibition Constant (Ki)) worked out at 5.19 µM. In test [2], the “Inhibition Mode” value is on record as “Competitive”. In addition, the IC50 is 17.5 µM in test [3], 6.35 ± 0.45 µM in test [5] (setting [8]) and 106 µM in test [6] (setting [9]).

On to `Cc1cc2c3c(c1)-c1c(O)cc(-c4cc5ccc(O)cc5o4)cc1OC3(c1ccc(O)cc1O)Oc1cc(O)ccc1-2` (centres unmarked) [Albanol B], for which, in test [5] (L-tyrosine substrate (monophenolase), 25 °C, pH 6.5, mean ± SEM of triplicate), the “IC50 (μM) Value L-Tyrosine” value was “inactive”. For the same compound, the IC50 in test [5] (setting [8]) and in test [6] (setting [9]) was greater than 350 µM each time. Further, in test [6], the “IC50 (μM) Value L-DOPA” value is “inactive”.

In general, Ki refers to a measure of affinity in units of concentration, obtained from inhibition or displacement. Usually IC50 stands for the concentration that inhibits the measured activity by half.
